According to patent publication US10174013B2, “Benzimidazole derivatives as kinase inhibitors” (SELVITA S.A., priority 2012, dated 2019):
Structures can show the parent of a compound that is named as a salt. Where two headings read alike, the source gives them in different places.

Tests used:
[1] = tested on: FLT3-ITD; assay: ADP-Glo Kinase Assay, Flt3 ITD; format: biochemical, Human; details: 1 μM compound
Method: Compounds of the present invention were tested for their inhibitory activity against Pim-1, Pim-2, Pim-3, Flt3 wt, Flt3 ITD, CDK2/E and DYRK1. The testing of the compounds was carried out using the ADP-Glo™ Kinase Assay from Promega Corporation (Madison, Wis., USA).
The ADP-Glo™ Kinase Assay is a luminescent ADP detection assay to measure kinase activity by quantifying the amount of ADP produced during a kinase reaction. The kinase assay is performed in kinase assay buffer (5 mM MOPS, pH 7.5, 5 mM MgCl2, 0.4 mM EDTA, 1.5 mM DTT). Test samples initially dissolved in DMSO at 10 mM were diluted with the assay buffer to 1000 nM. A 30 μL volume/well of a mixture of substrates containing ATP (final ATP concentration in each kinase assay was equal to its apparent ATP Km).
The assay was performed in two steps: first, after the kinase reaction, an equal volume of ADP-Glo™ Reagent was added to terminate the kinase reaction and deplete the remaining ATP. Second, the Kinase Detection Reagent was added to simultaneously convert ADP to ATP and allowed the newly synthesized ATP to be measured using a luciferase/luciferin reaction. The luminescent signal generated was proportional to the ADP concentration produced and was correlated with kinase activity. A microplate spectrophotometer (Synergy 2 multi-mode microplate reader [BioTek]) was used for detecting the luminescence. The data was normalized and the percent of inhibition was obtained according to the following equation: […]

[2] = biological target: FLT3(ITD) (Homo sapiens, UniProt P36888, ITD); assay: Binding to FLT3(ITD) mutant (DiscoveRx)
Method: Selected compounds were also tested for their binding properties against FLT3 kinase mutants using suitable in vitro assays (performed according to standard assays at DiscoveRx Corporation). The compounds show strong binding to the main oncogenic mutants of the FLT3 kinase, see Table 1B.

[3] = tested on: Jeko-1 cells; assay: Growth inhibition, MTS assay, Jeko-1; format: cell-based, Human; details: 72 hours, MTS cell viability, read-out: Jeko-1 ED50
[4] = tested on: SW-480 cells; assay: Growth inhibition, MTS assay, SW-480; format: cell-based, Human; details: 72 hours, MTS cell viability, read-out: SW-480 ED50
[5] = tested on: Pim kinase biomarkers in MV4-11 cells; assay: Pim-kinase biomarkers in MV4-11 cells; format: cell-based, Human; details: 0.25-5 μM, 4 and 24 h
Method: The efficacy of compounds 1A and 2A on Pim kinase-inhibition was tested in MV4-11 cells (see above). Cells were treated with each compound at concentrations of 0.25, 0.5, 1, 2.5 and 5 μM for 4 and 24 h. The positive control Ref A (the commercially available inhibitor SGI-1776 [obtained from Selleck Bio]) was used at a concentration of 5 μM. DMSO (Dimethyl sulfoxide) was used as a negative control. The levels of the following classical Pim-1 kinase biomarkers were assessed: c-Myc, phospho-4EBP1 (Ser65, Thr37&46) and phosphorylated S6 (Ser235). […] Also, the levels of pro-apoptotic and pro-survival biomarkers were assessed. First, induction of apoptosis, recognizable as an appearance and increased expression of cleaved form of the PARP protein, was observed, both at 4 and 24 hours after compound stimulation at high concentrations. […] Levels of tubulin were assessed as a reference loading control.
The efficacy of compound 1BI on Pim kinase-inhibition was tested in MV4-11 cells. The cells were treated with compound 1BI at concentrations of 0.25, 0.5, 1, 2.5 and 5 μM for 4 and 24 h. The positive controls Ref. A (SGI-1776, see above) and Ref. B (the commercially available inhibitor Sunitinib [obtained from Ark Pharm]) were used at 5 μM concentration. DMSO (Dimethyl sulfoxide) was used as a negative control. The levels of the following classical Pim-1 kinase biomarkers were assessed: c-myc, phospho-4EBP1 (Ser65, Thr37&46) and phosphorylated S6 (Ser235/236). […] The levels of pro-apoptotic and pro-survival biomarkers were also assessed. […] Levels of tubulin were assessed as a reference loading control.

[6] = tested on: Mino; assay: Combination study with anti-cancer agents, cell viability, Mino
Method: (§1) After this incubation, a cell viability assay was carried out according to the Manufacturer's instructions (CellTiter 96®AQueous Non-Radioactive Cell Proliferation Assay, Promega). The results were expressed as percentage of viable cells upon treatment with the individual drugs or the combination compared to the vehicle (DMSO) treated cells.

[7] = tested on: MV4-11; assay: Combination study with anti-cancer agents, cell viability, MV4-11; details: for ED50 value in MV4-11: single agent, used as fixed concentration in combination study; for Effect of combination: 72 hours
Method: as §1

Chain of FLT3(ITD) (P36888 whole entry, looked up, stated change not applied): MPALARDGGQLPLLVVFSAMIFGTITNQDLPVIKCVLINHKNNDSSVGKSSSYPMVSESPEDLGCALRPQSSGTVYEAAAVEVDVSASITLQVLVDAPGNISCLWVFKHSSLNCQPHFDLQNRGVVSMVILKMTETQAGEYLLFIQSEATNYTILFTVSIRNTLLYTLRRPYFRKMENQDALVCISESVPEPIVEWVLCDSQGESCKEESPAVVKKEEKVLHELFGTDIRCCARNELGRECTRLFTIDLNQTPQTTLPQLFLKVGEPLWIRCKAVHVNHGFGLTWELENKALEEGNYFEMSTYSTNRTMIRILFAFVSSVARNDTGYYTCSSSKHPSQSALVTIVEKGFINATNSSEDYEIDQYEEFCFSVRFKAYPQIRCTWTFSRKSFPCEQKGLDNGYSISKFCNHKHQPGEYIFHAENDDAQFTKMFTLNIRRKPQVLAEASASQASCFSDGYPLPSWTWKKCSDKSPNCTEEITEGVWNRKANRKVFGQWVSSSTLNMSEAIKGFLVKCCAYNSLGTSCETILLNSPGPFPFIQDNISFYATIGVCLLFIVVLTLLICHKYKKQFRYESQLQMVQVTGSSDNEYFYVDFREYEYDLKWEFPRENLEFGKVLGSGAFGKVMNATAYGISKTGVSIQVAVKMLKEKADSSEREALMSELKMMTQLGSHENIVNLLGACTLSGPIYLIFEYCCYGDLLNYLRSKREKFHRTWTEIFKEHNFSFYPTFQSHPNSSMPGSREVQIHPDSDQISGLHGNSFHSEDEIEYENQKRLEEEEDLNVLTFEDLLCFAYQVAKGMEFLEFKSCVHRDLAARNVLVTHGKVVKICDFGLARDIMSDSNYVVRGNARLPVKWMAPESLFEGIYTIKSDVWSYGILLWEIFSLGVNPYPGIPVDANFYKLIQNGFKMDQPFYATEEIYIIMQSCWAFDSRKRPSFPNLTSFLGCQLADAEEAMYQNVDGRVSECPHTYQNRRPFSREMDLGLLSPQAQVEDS

SMILES: CCn1c(N2CCNCC2)nc2c([N+](=O)[O-])c(Br)c(Br)cc21 [Example 1A, 5,6-dibromo-1-ethyl-4-nitro-2-(piperazin-1-yl)-1H-1,3-benzodiazole hydrochloride]
- Flt3ITD % INH (1 μM) [1]: 81%
- Kd [2]: 74 nM
- IC50 ([3]; Homo sapiens, JeKo-1): 800 nM
- IC50 ([4]; Homo sapiens, SW480): 2500 nM
- Mcl-1 pro-survival protein level [5]: dosed-dependent protein down-regulation
- induction of apoptosis (cleaved form of PARP protein) [5]: observed
- levels of c-myc protein [5]: downregulated
- levels of phosphorylated 4EBP1 (Ser65, Thr37&46) [5]: downregulated
- levels of phosphorylated S6 [5]: downregulated
- levels of phosphorylated p44/42 (Erk1/2), Flt3 biomarker [5]: downregulated
- ED50 value in Mino ([6]; single agent, used as fixed concentration in combination study): 1700 nM
- Effect of combination ([6]; with PD0332991, Mino (Mantle cell lymphoma), 72 hours): Synergistic
- ED50 value in MV4-11 [7]: 500 nM
- Effect of combination ([7]; with CAL-101, MV4-11 (Acute myeloid leukemia)): Synergistic

SMILES: CC(C)n1c(N2CCNC[C@H]2C)nc2c([N+](=O)[O-])c(Br)c(Br)cc21 [Example 1AX]
- Flt3ITD % INH (1 μM) [1]: 96%
- IC50 [3]: >100 nM

SMILES: CC(C)n1c(N2CC[C@@H](N)C2)nc2c(C#N)c(Br)c(Br)cc21 [Example 1BI]
- IC50 ([3]; Homo sapiens, JeKo-1): 700 nM
- Mcl-1 pro-survival protein level [5]: dosed-dependent protein down-regulation
- induction of apoptosis (cleaved form of PARP protein) [5]: observed in the highest concentration at 4 hours
- levels of c-myc protein [5]: down-regulated
- levels of phosphorylated 4EBP1 (Ser65, Thr37&46) [5]: down-regulated
- levels of phosphorylated S6 [5]: diminished almost completely
- levels of phosphorylated p44/42 (Erk1/2), Flt3 biomarker [5]: downregulated

SMILES: CCCn1c(N2CCNCC2)nc2c([N+](=O)[O-])c(Br)c(Br)cc21 [Example 1M]
- IC50 [4]: 2100 nM

SMILES: CC(C)n1c(N2CCNCC2)nc2c([N+](=O)[O-])c(Br)c(Br)cc21 [Example 2A, 5,6-dibromo-4-nitro-2-(piperazin-1-yl)-1-(propan-2-yl)-1H-1,3-benzodiazole hydrochloride]
- Kd [2]: 18 nM
- IC50 ([3]; Homo sapiens, JeKo-1): 400 nM
- IC50 ([4]; Homo sapiens, SW480): 800 nM

SMILES: Cl.O=[N+]([O-])c1c(Br)c(Br)cc2c1nc(N1CCNCC1)n2C1CCCC1 [Example 2D, 5,6-dibromo-1-cyclopentyl-4-nitro-2-(piperazin-1-yl)-1H-1,3-benzodiazole hydrochloride]
- IC50 ([4]; Homo sapiens, SW480): 600 nM

SMILES: CC(C)n1c(C2CCNCC2)nc2c([N+](=O)[O-])c(Br)c(Br)cc21 [Example 26A, 5,6-dibromo-4-nitro-2-(piperidin-4-yl)-1-(propan-2-yl)-1H-1,3-benzodiazole]
- Flt3ITD % INH (1 μM) [1]: 93%
- IC50 ([3]; Homo sapiens, JeKo-1): 300 nM
- ED50 value in MV4-11 [7]: 100 nM
- Effect of combination ([7]; with C (Cytarabine), MV4-11 (Acute myeloid leukemia)): Synergistic
- Effect of combination ([7]; with V (Vosaroxin), MV4-11 (Acute myeloid leukemia)): Synergistic
